Measured values published in article PMC11582070, “Template-assisted covalent modification underlies activity of covalent molecular glues” (Nature Chemical Biology, 2023).

What was measured:
DCAF16 [1] = target: T1, DCAF16 (Homo sapiens, UniProt O60885+Q9NXF7); assay: intact protein MS ([…] adduct alone, […] with BRD4BD2; none with C58S); TR-FRET; format: binding
T1 construct: full length, in complex with DDB1ΔB; with BRD4 BD2 (template), DDB1ΔB

DCAF16 [2] = target: T1, DCAF16; assay: intact protein MS; TR-FRET; format: binding

Row | SMILES | intact protein MS (8% adduct alone, 50% with BRD4BD2; none with C58S); TR-FRET (DCAF16 [1]) | intact protein MS; TR-FRET (DCAF16 [2])
1 | Cc1sc2c(c1C)C(c1ccc(/C=C/C=O)cc1)=N[C@@H](CC(=O)OC(C)(C)C)c1nnc(C)n1-2 [compound 2, TMX1] | By intact mass spectrometry, the DCAF16 C58S mutant completely eliminated DCAF16–TMX1 adduct formation | 
2 | C=CC(=O)Nc1ccc(C2=N[C@@H](CC(=O)OC(C)(C)C)c3nnc(C)n3-c3sc(C)c(C)c32)cc1 [compound 3, MMH1] |  | DCAF16 intact mass spectrometry experiments on MMH1 and MMH2 and found similar template-assisted covalent modifications
